Laboratory results from patent EP0377044B1, “PROTECTIVE AGENT FOR RADIATION HAZARD” (MITSUI TOATSU CHEMICALS, Inc., priority 1988, dated 1989).
Square brackets hold non-standard residues; d marks the D form. Peptide text beside a SMILES is read from it. pGlu = O=C1CC[C@@H](C(=O)O)N1

Tests used:
[1] = test system: mice irradiated with 800R X-rays; experiment: Survival of mice after whole body irradiation with 800R X-rays; assay type: in vivo, C3H/He mice; conditions: 14 days; for The number of days and survivals after X-radiation 15 (days): day 15, 15 animals used; for The number of days and survivals after X-radiation 16 (days): day 16, 15 animals used; for The number of days and survivals after X-radiation 17 (days): day 17, 15 animals used; for The number of days and survivals after X-radiation 18 (days): day 18, 15 animals used; for The number of days and survivals after X-radiation 19 (days): day 19, 15 animals used; for The number of days and survivals after X-radiation 20 (days): day 20, 15 animals used; for The number of days and survivals after X-radiation 25 (days): day 25, 15 animals used; for The number of days and survivals after X-radiation 30 (days): day 30, 15 animals used
Description: Male, 10 week-old C3H/He mice were used and groups of 10 - 15 animals each were prepared.
The mice were subjected to whole body irradiation for 8 minutes using a X-radiation unit (manufactured by Shimazu Seisaku-sho, Shin-Ai 250 II). These animals received, once per day, subcutaneous administration of 100 µg of FTS·CH₃COOH·2H₂O as used in Example 1 for consecutive 14 days. For a pre-administered group, the administration started two days before the irradiation. For a post-administered group, the first administration was effected immediately after the irradiation. As control groups, one group which received only once subcutaneous administration of 1 KE of Picibanil immediately after the irradiation and another group which received every day administration of physiological saline were prepared.

[2] = test system: mice were subjected to 600R X-radiation / 400R X-radiation; experiment: Blood test in X-irradiated mice (600R and 400R); assay type: in vivo; conditions: for Blood parameters HCT / Blood parameters HGB / Blood parameters PLT / Blood parameters RBC / Blood parameters RET / Blood parameters WBC: pre-administration with 100 µg; for Blood parameters HCT: hematocrit value; for Blood parameters HGB: hemoglobin; for Blood parameters PLT: number of blood platelet; for Blood parameters RBC: number of red blood cells; for Blood parameters RET: number of reticulocytes; for Blood parameters WBC: number of white blood cells
Description: Independently of the irraditation carried out in Experimental Example 3 with mice for life/death observation, mice were subjected to 600R X-radiation to conduct a blood test on a dayly basis. Another group of mice was prepared and subjected to 400R X-radiation. Each of the 600R- and 400R-irradiated groups was further divided into two, one `group being for pre-administration with 100 µg of the above mentioned medicament and the other group serving as a control. Samples of blood were taken every day from each mouse and tested for the number white blood cells (WBC), that of red blood cells (RBC), that of reticulocytes (RET), that of blood platelet (PLT), that of hemoglobin (HGB) and hematocrit value (HCT).

[3] = test system: animals subjected to whole body irradiation with lethal or sub-lethal doses; experiment: Recovery of hematopoietic dysfunctions and immune responses after whole body irradiation (general description); assay type: in vivo
Description: On the other hand, animals were subjected to whole body irradiation with lethal or sub-lethal doses and changes with the lapse of time in the number of blood cells were measured for given periods of time in order to check the medicament for the promotive effect on the recovery of hematopoietic dysfunctions. Blood cells used as index included red blood cells, reticulocytes, white blood cells such as lymphocytes and neutrophils, platelets, hemoglobins, hematocrit and the like. […] Thus, as is evident from these observations, the medicament of the present invention is believed to act on hematopoietic organs, e.g. bone marrow and spleen, and exert the life span-extending or life-saving effect due to its inhibitory or recovery-promoting effect on hematopoietic dysfunctions, and it is therefore valuable as a preventive and therapeutic agent against radiation damages.

[4] = post-administration 100 µg s.c. once per day, from immediately after irradiation
[5] = pre-administration 100 µg s.c. once per day, from two days before irradiation

## C[C@H](NC(=O)[C@@H]1CCC(=O)N1)C(=O)N[C@@H](CCCCN)C(=O)N[C@@H](CO)C(=O)N[C@@H](CCC(N)=O)C(=O)NCC(=O)NCC(=O)N[C@@H](CO)C(=O)N[C@@H](CC(N)=O)C(=O)O [medicament, pGlu-Ala-Lys-Ser-Gln-Gly-Gly-Ser-Asn] ([pGlu]AKSQGGSN-OH)
[1]; [4]
  The number of days and survivals after X-radiation 15 (days): 10
  The number of days and survivals after X-radiation 16 (days): 8
  The number of days and survivals after X-radiation 17 (days): 6
  The number of days and survivals after X-radiation 18 (days): 6
  The number of days and survivals after X-radiation 19 (days): 6
  The number of days and survivals after X-radiation 20 (days): 6
  The number of days and survivals after X-radiation 25 (days): 5
  The number of days and survivals after X-radiation 30 (days): 5
[1]; pre-administration 100 µg s.c. once per day, from two days before irradiation, day 10, 15 animals used
  The number of days and survivals after X-radiation 10 (days): 15
[1]; pre-administration 100 µg s.c. once per day, from two days before irradiation, day 11, 15 animals used
  The number of days and survivals after X-radiation 11 (days): 15
[1]; pre-administration 100 µg s.c. once per day, from two days before irradiation, day 12, 15 animals used
  The number of days and survivals after X-radiation 12 (days): 15
[1]; pre-administration 100 µg s.c. once per day, from two days before irradiation, day 13, 15 animals used
  The number of days and survivals after X-radiation 13 (days): 15
[1]; pre-administration 100 µg s.c. once per day, from two days before irradiation, day 14, 15 animals used
  The number of days and survivals after X-radiation 14 (days): 15
[1]; [5]
  The number of days and survivals after X-radiation 15 (days): 14
  The number of days and survivals after X-radiation 16 (days): 13
  The number of days and survivals after X-radiation 17 (days): 11
  The number of days and survivals after X-radiation 18 (days): 11
  The number of days and survivals after X-radiation 19 (days): 11
  The number of days and survivals after X-radiation 20 (days): 9
  The number of days and survivals after X-radiation 25 (days): 9
  The number of days and survivals after X-radiation 30 (days): 9
[2]; 400R X-rays, on the 14th day
  Blood parameters HCT: 29.8±1.4
  Blood parameters HGB: 8.8±0.3
  Blood parameters PLT: 240.6±14.3
  Blood parameters RBC: 522.7±21.7
  Blood parameters RET: 30.0±6.5
  Blood parameters WBC: 8.7±0.4
[2]; 600R X-rays, on the 7th day
  Blood parameters HCT: 39.1±5.5
  Blood parameters HGB: 12.3±1.9
  Blood parameters PLT: 372.0±174.7
  Blood parameters RBC: 691.8±96.1
  Blood parameters RET: 24.6±10.9
  Blood parameters WBC: 34.2±25.2
[2]; 600R or 400R X-radiation, pre-administration 100 µg, compared with control group, summary of Table 4
  blood parameters (WBC, RBC, RET, PLT, HGB, HCT): apparently improved
[3]; irradiated animals, examined every day, versus control group
  immune responses of immunocytes (spleen cells response to Con A, thymus cells reactivity to IL-1): apparently higher than those for the control group
[3]; irradiated animals, versus control group
  immunocytes capabilities of humoral factor production (IL-1 by peritoneal macrophage, CSF by spleen cells and peritoneal macrophage): superior to the control group
[3]; whole body irradiation with lethal or sub-lethal doses, red blood cells, reticulocytes, white blood cells, platelets, hemoglobins, hematocrit
  reduction of blood cells due to irradiation: markedly inhibited
